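Compound exposure: 48 hours, 5 concentrations, 96-well plates. GI50: concentration for 50% inhibition of growth. The concentration for full growth arrest is given as TGI.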
How the values were obtained:
Assay in all cases: DTP human tumour cell line panel, 48 h
786-0 renal = system: 786-0 renal
A549 NSCLC = system: A549 NSCLC
CAKI-1 renal = system: CAKI-1 renal
CCRF-CEM leukemia = system: CCRF-CEM leukemia
COLO 205 colon = system: COLO 205 colon
DU-145 prostate = system: DU-145 prostate
EKVX NSCLC = system: EKVX NSCLC
HCC-2998 colon = system: HCC-2998 colon
HCT-15 colon = system: HCT-15 colon
HL-60(TB) leukemia = system: HL-60(TB) leukemia
HOP-62 NSCLC = system: HOP-62 NSCLC
HT29 colon = system: HT29 colon
IGROV1 ovarian = system: IGROV1 ovarian
K-562 leukemia = system: K-562 leukemia
KM12 colon = system: KM12 colon
M14 melanoma = system: M14 melanoma
MALME-3M melanoma = system: MALME-3M melanoma
MCF7 breast = system: MCF7 breast
MDA-MB-231 breast = system: MDA-MB-231 breast
MDA-N = system: MDA-N
MOLT-4 leukemia = system: MOLT-4 leukemia
NCI-H23 lung = system: NCI-H23 lung
OVCAR-8 ovarian = system: OVCAR-8 ovarian
PC-3 prostate = system: PC-3 prostate
RPMI-8226 leukemia = system: RPMI-8226 leukemia
RXF 393 renal = system: RXF 393 renal
SF-295 CNS = system: SF-295 CNS
SK-MEL-28 melanoma = system: SK-MEL-28 melanoma
SK-MEL-5 melanoma = system: SK-MEL-5 melanoma
SK-OV-3 ovarian = system: SK-OV-3 ovarian
SN12C renal = system: SN12C renal
SNB-75 CNS = system: SNB-75 CNS
SR leukemia = system: SR leukemia
SW-620 colon = system: SW-620 colon
T-47D breast = system: T-47D breast
TK-10 renal = system: TK-10 renal
UACC-257 melanoma = system: UACC-257 melanoma
UACC-62 melanoma = system: UACC-62 melanoma
A498 renal = system: A498 renal
ACHN renal = system: ACHN renal
BT-549 breast = system: BT-549 breast
HCT-116 colon = system: HCT-116 colon
HOP-92 NSCLC = system: HOP-92 NSCLC
HS 578T breast = system: HS 578T breast
LOX IMVI melanoma = system: LOX IMVI melanoma
MDA-MB-435 = system: MDA-MB-435
NCI-H226 lung = system: NCI-H226 lung
NCI-H460 lung = system: NCI-H460 lung
NCI-H522 lung = system: NCI-H522 lung
NCI/ADR-RES ovarian = system: NCI/ADR-RES ovarian
OVCAR-3 ovarian = system: OVCAR-3 ovarian
OVCAR-4 ovarian = system: OVCAR-4 ovarian
OVCAR-5 ovarian = system: OVCAR-5 ovarian
SF-268 CNS = system: SF-268 CNS
SF-539 CNS = system: SF-539 CNS
SK-MEL-2 melanoma = system: SK-MEL-2 melanoma
SNB-19 CNS = system: SNB-19 CNS
U251 CNS = system: U251 CNS
UO-31 renal = system: UO-31 renal

Compound `CCC1(c2ccccc2)Sc2ccccc2-n2cccc2C1=O` (centres undefined) has a TGI (786-0 renal) of over 10 µM, a TGI (A549 NSCLC) of over 10 µM and a TGI (CAKI-1 renal) of over 10 µM. It also gave a TGI (CCRF-CEM leukemia) of over 10 µM, a TGI (COLO 205 colon) of over 10 µM and a TGI (DU-145 prostate) of over 10 µM. The TGI (EKVX NSCLC) was over 10 µM, the TGI (HCC-2998 colon) was over 10 µM and the TGI (HCT-15 colon) was over 10 µM. The TGI (HL-60(TB) leukemia) was over 10 µM, the TGI (HOP-62 NSCLC) was over 10 µM and the TGI (HT29 colon) was over 10 µM. The TGI (IGROV1 ovarian) was over 10 µM, the TGI (K-562 leukemia) was over 10 µM and the TGI (KM12 colon) was over 10 µM. For the same compound, the TGI (M14 melanoma) was over 10 µM, the TGI (MALME-3M melanoma) was over 10 µM and the TGI (MCF7 breast) was over 10 µM. The TGI (MDA-MB-231 breast) was over 10 µM, the TGI (MDA-N) was over 10 µM and the TGI (MOLT-4 leukemia) was over 10 µM. It also gave a TGI (NCI-H23 lung) of over 10 µM, a TGI (OVCAR-8 ovarian) of over 10 µM and a TGI (PC-3 prostate) of over 10 µM. It also gave a TGI (RPMI-8226 leukemia) of over 10 µM, a TGI (RXF 393 renal) of over 10 µM and a TGI (SF-295 CNS) of over 10 µM. For the same compound, the TGI (SK-MEL-28 melanoma) was over 10 µM, the TGI (SK-MEL-5 melanoma) was over 10 µM and the TGI (SK-OV-3 ovarian) was over 10 µM. The TGI (SN12C renal) was over 10 µM, the TGI (SNB-75 CNS) was over 10 µM and the TGI (SR leukemia) was over 10 µM. For the same compound, the TGI (SW-620 colon) was over 10 µM, the TGI (T-47D breast) was over 10 µM and the TGI (TK-10 renal) was over 10 µM. It also gave a TGI (UACC-257 melanoma) of over 10 µM and a TGI (UACC-62 melanoma) of over 10 µM.
With `CC1=C(C(=O)Nc2ccc3n[nH]c(C)c3c2)C(c2ccc(C(F)(F)F)cc2)CC(=O)N1` (centres undefined) the GI50 (786-0 renal) was over 25 µM, the TGI (786-0 renal) was over 25 µM and the GI50 (A498 renal) was 6.3 µM. For the same compound, the TGI (A498 renal) was over 25 µM, the GI50 (A549 NSCLC) was 18.5 µM and the TGI (A549 NSCLC) was over 25 µM. For the same compound, the GI50 (ACHN renal) was over 25 µM, the TGI (ACHN renal) was over 25 µM and the GI50 (BT-549 breast) was 6.96 µM. For the same compound, the TGI (BT-549 breast) was over 25 µM, the GI50 (CAKI-1 renal) was over 18.8 µM and the TGI (CAKI-1 renal) was over 25 µM. It also gave a GI50 (CCRF-CEM leukemia) of 11.8 µM, a TGI (CCRF-CEM leukemia) of over 25 µM and a GI50 (COLO 205 colon) of 7.64 µM. The TGI (COLO 205 colon) was over 19.1 µM, the GI50 (DU-145 prostate) was over 25 µM and the TGI (DU-145 prostate) was over 25 µM. The GI50 (EKVX NSCLC) was 5.89 µM, the TGI (EKVX NSCLC) was over 25 µM and the GI50 (HCC-2998 colon) was over 25 µM. For the same compound, the TGI (HCC-2998 colon) was over 25 µM, the GI50 (HCT-116 colon) was 12.5 µM and the TGI (HCT-116 colon) was over 25 µM. The GI50 (HCT-15 colon) was over 25 µM, the TGI (HCT-15 colon) was over 25 µM and the GI50 (HL-60(TB) leukemia) was over 25 µM. It also gave a TGI (HL-60(TB) leukemia) of over 25 µM, a GI50 (HOP-62 NSCLC) of 4.4 µM and a TGI (HOP-62 NSCLC) of over 25 µM. The GI50 (HOP-92 NSCLC) was 0.0117 µM, the TGI (HOP-92 NSCLC) was 1.46 µM and the GI50 (HS 578T breast) was 0.305 µM. The TGI (HS 578T breast) was 19.5 µM, the GI50 (HT29 colon) was over 25 µM and the TGI (HT29 colon) was over 25 µM. For the same compound, the GI50 (IGROV1 ovarian) was 10.3 µM, the TGI (IGROV1 ovarian) was over 25 µM and the GI50 (K-562 leukemia) was over 25 µM. It also gave a TGI (K-562 leukemia) of over 25 µM, a GI50 (KM12 colon) of 14 µM and a TGI (KM12 colon) of over 25 µM. The GI50 (LOX IMVI melanoma) was 12.8 µM, the TGI (LOX IMVI melanoma) was over 25 µM and the GI50 (M14 melanoma) was over 25 µM. For the same compound, the TGI (M14 melanoma) was over 25 µM, the GI50 (MALME-3M melanoma) was 13.6 µM and the TGI (MALME-3M melanoma) was over 25 µM. For the same compound, the GI50 (MCF7 breast) was over 17.3 µM, the TGI (MCF7 breast) was over 25 µM and the GI50 (MDA-MB-231 breast) was 15.9 µM. It also gave a TGI (MDA-MB-231 breast) of over 25 µM, a GI50 (MDA-MB-435) of over 21 µM and a TGI (MDA-MB-435) of over 25 µM. For the same compound, the GI50 (MOLT-4 leukemia) was 16.4 µM, the TGI (MOLT-4 leukemia) was over 25 µM and the GI50 (NCI-H226 lung) was 0.709 µM. For the same compound, the TGI (NCI-H226 lung) was over 17.7 µM, the GI50 (NCI-H23 lung) was over 17.6 µM and the TGI (NCI-H23 lung) was over 25 µM. For the same compound, the GI50 (NCI-H460 lung) was 16.5 µM, the TGI (NCI-H460 lung) was over 25 µM and the GI50 (NCI-H522 lung) was 9.13 µM. It also gave a TGI (NCI-H522 lung) of over 21.5 µM, a GI50 (NCI/ADR-RES ovarian) of over 25 µM and a TGI (NCI/ADR-RES ovarian) of over 25 µM. For the same compound, the GI50 (OVCAR-3 ovarian) was over 25 µM, the TGI (OVCAR-3 ovarian) was over 25 µM and the GI50 (OVCAR-4 ovarian) was 16 µM. The TGI (OVCAR-4 ovarian) was over 25 µM, the GI50 (OVCAR-5 ovarian) was 16.2 µM and the TGI (OVCAR-5 ovarian) was over 25 µM. The GI50 (OVCAR-8 ovarian) was over 25 µM, the TGI (OVCAR-8 ovarian) was over 25 µM and the GI50 (PC-3 prostate) was over 25 µM. For the same compound, the TGI (PC-3 prostate) was over 25 µM, the GI50 (RPMI-8226 leukemia) was over 25 µM and the TGI (RPMI-8226 leukemia) was over 25 µM. The GI50 (RXF 393 renal) was 6.7 µM, the TGI (RXF 393 renal) was over 25 µM and the GI50 (SF-268 CNS) was 8.59 µM. For the same compound, the TGI (SF-268 CNS) was over 25 µM, the GI50 (SF-295 CNS) was 16.4 µM and the TGI (SF-295 CNS) was over 25 µM. It also gave a GI50 (SF-539 CNS) of 7.12 µM, a TGI (SF-539 CNS) of over 25 µM and a GI50 (SK-MEL-2 melanoma) of over 25 µM. For the same compound, the TGI (SK-MEL-2 melanoma) was over 25 µM, the GI50 (SK-MEL-28 melanoma) was over 25 µM and the TGI (SK-MEL-28 melanoma) was over 25 µM. For the same compound, the GI50 (SK-MEL-5 melanoma) was over 17.7 µM, the TGI (SK-MEL-5 melanoma) was over 25 µM and the GI50 (SK-OV-3 ovarian) was 24.2 µM. It also gave a TGI (SK-OV-3 ovarian) of over 25 µM, a GI50 (SN12C renal) of over 25 µM and a TGI (SN12C renal) of over 25 µM. It also gave a GI50 (SNB-19 CNS) of over 25 µM, a TGI (SNB-19 CNS) of over 25 µM and a GI50 (SNB-75 CNS) of 1.24 µM. It also gave a TGI (SNB-75 CNS) of over 18.8 µM, a GI50 (SR leukemia) of over 16.4 µM and a TGI (SR leukemia) of over 25 µM. For the same compound, the GI50 (SW-620 colon) was 11 µM, the TGI (SW-620 colon) was over 25 µM and the GI50 (T-47D breast) was over 25 µM. The TGI (T-47D breast) was over 25 µM, the GI50 (TK-10 renal) was 14 µM and the TGI (TK-10 renal) was over 25 µM. It also gave a GI50 (U251 CNS) of over 25 µM, a TGI (U251 CNS) of over 25 µM and a GI50 (UACC-257 melanoma) of over 25 µM. For the same compound, the TGI (UACC-257 melanoma) was over 25 µM, the GI50 (UACC-62 melanoma) was 16 µM and the TGI (UACC-62 melanoma) was over 25 µM. For the same compound, the GI50 (UO-31 renal) was 3.91 µM and the TGI (UO-31 renal) was over 25 µM.

From PubChem BioAssay (NCI)
